{"source": "patent US10336792B2", "about": "“Antimicrobial peptide dendrimers” (priority 2014, dated 2019)", "test_system": "Pseudomonas aeruginosa (strain PA01)", "test": "microbe, parasite or virus in culture", "format": "cell-based", "settings": "strain", "description": "Antimicrobial activity was assayed against Bacillus subtilis (strain BR151), Escherichia coli (strain DH5α) and Pseudomonas aeruginosa (strain PA01). Microdilution broth method was used to determine the minimal inhibitory concentration (MIC). A colony of bacteria was grown in LB-medium overnight at 37° C. The concentration was quantified by measuring absorbance at 600 nm and diluted to OD600=0.1 (1×10^8 CFU/mL). The samples were prepared as stock solutions of 1 mg mL^−1 in H2O and diluted serially by ⅔ in nutrient LB in a 96-well microtiterplate (Cornstar, polypropylene, untreated). The sample solutions (50 μL) were mixed with the diluted bacterial suspension with an OD600 nm of 0.001 (50 μL). […] The plates were incubated at 37° C. until satisfactory growth (18-24 h). For each test, two columns of the plate were kept for sterility control (SC, broth only) and growth control (GC, broth with bacterial inoculums, no antibiotics). 10 μL of a solution of MTT (0.1% in H2O) was added to each well. The minimal inhibitory concentration (MIC) was defined as the lowest concentration of the antimicrobial substance (peptide dendrimer) that inhibited visible growth of the tested bacteria (yellow) with the unaided eye. For microbiological study the linear peptide LysTyrLysLysAlaLeuLysLysLeuAlaLysLeuLeu (SEQ ID No. 1) was used as reference.\nAll peptides were tested for their activity against P. aeruginosa PAO1 in a broth dilution assay (Wiegand, I. et al., 2008, Nat. Protoc., 3, 163-75; Clinical and Laboratory Standards Institute document M7-A7 7th Edition) to determine the MIC (minimal inhibitory concentration) values. The stock solutions of the peptide dendrimers were diluted serially by ⅔ in nutrient LB in 96-well microtiter plates. Bacteria were grown in nutrient LB overnight at 37° C. After dilution the bacteria were added to the peptides and incubated overnight (18-24 h) at 37° C. […] The position of the amino acids between the branching units seems to be optimal if the hydrophobic amino acid is the first counting from C-terminus and the charged one is on the second position. Introducing Ala as additional hydrophobic amino acid reduces activity (MSt-120). […] Also assembling charged or hydrophobic sections between the branching units leads to loss of activity whereas altering L-amino acids to D-amino acids maintains activity leading to the hypothesis that the mechanism of action should not be receptor mediated.", "note": "Positions of bridges follow the written chain, without caps; N, C: chain ends. Residues, ends and D or L forms follow the SMILES beside them. Groups on a side chain read outwards from the residue. Chains are numbered I, II in the order given. *: point of attachment. LeuLys(Leu) = CC(C)C[C@H](N)C(=O)NCCCC[C@H](NC(=O)[C@@H](N)CC(C)C)C(=O)*", "data": [{"smiles": "CC(C)C[C@H](NC(=O)[C@H](CCCCN)NC(=O)[C@H](CCCCN)NC(=O)[C@H](CCCCNC(=O)[C@H](CC(C)C)NC(=O)[C@H](CCCCN)NC(=O)[C@H](CC(C)C)NC(=O)[C@H](CCCCNC(=O)[C@H](CC(C)C)NC(=O)[C@H](CCCCN)NC(=O)[C@H](CCCCNC(=O)[C@H](CC(C)C)NC(=O)[C@@H](N)CCCCN)NC(=O)[C@H](CC(C)C)NC(=O)[C@@H](N)CCCCN)NC(=O)[C@H](CC(C)C)NC(=O)[C@H](CCCCN)NC(=O)[C@H](CCCCNC(=O)[C@H](CC(C)C)NC(=O)[C@@H](N)CCCCN)NC(=O)[C@H](CC(C)C)NC(=O)[C@@H](N)CCCCN)NC(=O)[C@H](CC(C)C)NC(=O)[C@H](CCCCN)NC(=O)[C@H](CC(C)C)NC(=O)[C@H](CCCCNC(=O)[C@H](CC(C)C)NC(=O)[C@H](CCCCN)NC(=O)[C@H](CCCCNC(=O)[C@H](CC(C)C)NC(=O)[C@@H](N)CCCCN)NC(=O)[C@H](CC(C)C)NC(=O)[C@@H](N)CCCCN)NC(=O)[C@H](CC(C)C)NC(=O)[C@H](CCCCN)NC(=O)[C@H](CCCCNC(=O)[C@H](CC(C)C)NC(=O)[C@@H](N)CCCCN)NC(=O)[C@H](CC(C)C)NC(=O)[C@@H](N)CCCCN)C(N)=O", "note": "[YGO-008, (KL)8(KKL)4(KLKL)2(KKKL)] (I: H-KLK([Leu-Lys])KLKLKLKKKL-NH2 / II: H-KLK([Leu-Lys])KLKLKL / III: H-KLK([Leu-Lys])KL / IV: H-KLK([Leu-Lys])KL; amide I:6-IV:C, I:10-II:C, II:6-III:C)", "values": [{"measurement": "MIC P. aeruginosa PAO1", "value": 2, "unit": "µg/mL"}]}, {"smiles": "CC(C)C[C@H](NC(=O)[C@H](CCCNC(=N)N)NC(=O)[C@H](CCCCNC(=O)[C@H](CC(C)C)NC(=O)[C@@H](N)CCCNC(=N)N)NC(=O)[C@H](CC(C)C)NC(=O)[C@@H](N)CCCNC(=N)N)C(=O)N[C@@H](CSSC[C@H](NC(=O)[C@H](CC(C)C)NC(=O)[C@H](CCCNC(=N)N)NC(=O)[C@H](CCCCNC(=O)[C@H](CC(C)C)NC(=O)[C@@H](N)CCCNC(=N)N)NC(=O)[C@H](CC(C)C)NC(=O)[C@@H](N)CCCNC(=N)N)C(N)=O)C(N)=O", "note": "[CCS-19 dimer, ((RL)2KRLC)2] (I: H-RLK([Leu-Arg])RLC-NH2 / II: H-RLK([Leu-Arg])RLC-NH2; disulfide I:6-II:6; N-terminus assumed)", "values": [{"measurement": "MIC P. aeruginosa PAO1", "value": 5, "unit": "µg/mL"}]}, {"smiles": "CC(C)C[C@H](NC(=O)[C@H](CCCCNC(=O)[C@H](CCCCN)NC(=O)[C@H](CCCCNC(=O)[C@@H](N)CC(C)C)NC(=O)[C@@H](N)CC(C)C)NC(=O)[C@H](CCCCN)NC(=O)[C@H](CCCCNC(=O)[C@@H](N)CC(C)C)NC(=O)[C@@H](N)CC(C)C)C(=O)NCCCC[C@H](NC(=O)[C@H](CC(C)C)NC(=O)[C@H](CCCCNC(=O)[C@H](CCCCN)NC(=O)[C@H](CCCCNC(=O)[C@@H](N)CC(C)C)NC(=O)[C@@H](N)CC(C)C)NC(=O)[C@H](CCCCN)NC(=O)[C@H](CCCCNC(=O)[C@@H](N)CC(C)C)NC(=O)[C@@H](N)CC(C)C)C(=O)N[C@@H](CCCCN)C(N)=O", "note": "[MSt-147, (L)8(KK)4(KL)2(KK)] (I: H-LK(Leu)KK([Lys-LeuLys(Leu)])LKK-NH2 / II: H-LK(Leu)KK([Lys-LeuLys(Leu)])L; amide I:6-II:C)", "values": [{"measurement": "MIC P. aeruginosa PAO1", "value": 12, "unit": "µg/mL"}]}, {"smiles": "CC(C)C[C@H](NC(=O)[C@H](CCCCN)NC(=O)[C@H](CCCCNC(=O)[C@H](CC(C)C)NC(=O)[C@@H](N)CCCCN)NC(=O)[C@H](CC(C)C)NC(=O)[C@@H](N)CCCCN)C(=O)N[C@@H](CSSC[C@H](NC(=O)[C@H](CC(C)C)NC(=O)[C@H](CCCCN)NC(=O)[C@H](CCCCNC(=O)[C@H](CC(C)C)NC(=O)[C@@H](N)CCCCN)NC(=O)[C@H](CC(C)C)NC(=O)[C@@H](N)CCCCN)C(N)=O)C(N)=O", "note": "[CCS-5 dimer, ((KL)2KKLC)2] (I: H-KLK([Leu-Lys])KLC-NH2 / II: H-KLK([Leu-Lys])KLC-NH2; disulfide I:6-II:6)", "values": [{"measurement": "MIC P. aeruginosa PAO1", "value": 15, "unit": "µg/mL"}]}]}
